Values of other authors, collected in patent US5817671A, “5-HT1F agonists” (Eli Lilly and Company, priority 1997, dated 1998).

How the values were obtained:
[1] = system: exploratory behavior of arthritic rats; details: arthritic animals; Larsen and Arnt (1985)
5-HT1F receptor = target: T1, 5-HT1F receptor (Homo sapiens, UniProt P30939); details: reported by Weinshank et al., WO93/14201
T1 sequence (P30939 1-366): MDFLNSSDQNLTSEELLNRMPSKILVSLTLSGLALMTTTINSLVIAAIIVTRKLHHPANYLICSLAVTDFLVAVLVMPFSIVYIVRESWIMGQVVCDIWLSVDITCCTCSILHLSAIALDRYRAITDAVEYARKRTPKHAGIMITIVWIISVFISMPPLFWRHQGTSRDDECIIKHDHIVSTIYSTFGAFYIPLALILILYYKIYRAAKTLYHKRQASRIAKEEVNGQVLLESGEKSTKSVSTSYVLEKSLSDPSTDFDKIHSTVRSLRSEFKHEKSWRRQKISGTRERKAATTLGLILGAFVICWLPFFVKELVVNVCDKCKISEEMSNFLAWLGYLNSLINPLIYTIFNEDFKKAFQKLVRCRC

[2] = system: neurogenic inflammation, peptide extravasation; details: Moskowitz, Neurology 43(suppl. 3), S16-S20 (1993)
[3] = treatment of migraine
[4] = in vivo
[5] = in vivo; remark: listed apart in the source

Q: With CN(C)CCCC1(c2ccc(F)cc2)OCc2cc(C#N)ccc21 (stereo not drawn) [citalopram] as the molecule, how does the “effect on exploratory behavior (in words)” value [1] read?
A: Its value is “improve exploratory behavior”.

Q: Which “inhibition of forskolin stimulated cAMP production (in words)” value (5-HT1F receptor) does the source give for NCCc1c[nH]c2ccc(O)cc12 [serotonin] here?
A: Its value is “inhibit forskolin stimulated cAMP production”.

Q: Which results are given for CNS(=O)(=O)Cc1ccc2[nH]cc(CCN(C)C)c2c1 [Sumatriptan]?
A: block of neurogenic inflammation (in words) [2]: neurogenic inflammation is blocked; undesirable side effects (in words) [3]: undesirable side effects, particularly vasoconstriction; duration of action (in words) [4]: relatively short duration of action; bioavailability (in words) [5]: low bioavailability
